# Like-named read-outs stand apart in the source and are kept apart here.
# Key:
# JAK1 = JAK1 (Homo sapiens (Human), UniProt P23458); test: JAK LanthaScreen Kinase Assay (TR-FRET), JAK1 in vitro enzyme assay; assay type: biochemical; settings: 20.0 μM ATP
# Method: (§1) The JAK LanthaScreen™ Kinase Assay (Invitrogen) is used to determine the ability of test compounds to inhibit JAK1, JAK2, and JAK3 kinase activity. These are TR-FRET assay formats that use long-lifetime terbium labeled antibody as the donor species and GFP-STAT1 as the acceptor species. Use the TR-FRET ratio to monitor JAK kinase activity where an increase in phosphorylation of the GFP-STAT1 results in an increase in the TR-FRET ratio. Perform the kinase reaction using a 12.5 μl reaction volume in shallow black 384-well Proxiplate®. Add reagents to obtain final reaction conditions of […], 1.76 mM Triton X-100, ATP (20.0 μM for JAK1 and JAK3 or 5 μM for JAK2) enzyme assays, 10.0 mM MgCl2, 1 mM EGTA and 0.01% Brij-35, […] GFP-STAT1, 14 nM JAK1 enzyme for JAK1, 1.0 nM for JAK2 or 2.5 nM for JAK3 enzyme assays, and 4% DMSO and serial dilutions of test compound (diluted 1:3 from 20,000 to 1 nM). Following ATP/GFP-STAT1 addition, centrifuge the assay plates for 1 minute at 1000 revolutions per minute (RPM). Allow the plates to incubate at RT for 60 minutes and then add 12.5 μl of a stopping buffer containing 20 mM EDTA, 2 nM Terbium-anti-phosphorylated Signal Transducers and Activators of Transcription [phosphorylation Tyrosine 701 amino acid] […] Use ACTIVITYBASE® 4.0 to fit the percent inhibition and ten-point compound concentration data to a four-parameter logistic equation.
# JAK2 [1] = molecular target: T1, JAK2 (Homo sapiens (Human), UniProt O60674); test: JAK LanthaScreen Kinase Assay (TR-FRET), JAK2 in vitro enzyme assay; assay type: biochemical; settings: 5 μM ATP
# Method: as §1
# JAK2 [2] = molecular target: T1, JAK2; test: Human whole blood assay: pSTAT5 (JAK2) in monocytes, GM-CSF stimulated; assay type: cell-based; settings: pSTAT5 in CD4Low CD33Hi monocytes
# Text: Human Whole Blood Assays: Determination of pSTAT3 (JAK1) and pSTAT5 (JAK2) in Lymphocytes and Monocytes
# Human whole blood (HWB) assays were developed and validated to determine the JAK1 and JAK2 selectivity of test compounds.
# Dilute the test compounds, 10 points, (1:3) in DMSO 100% and a step down in PBS+0.1% BSA. Use Tofacitinib as a reference compound in each plate, as well as a maximum signal (stimulated wells) and a minimum signal (no stimulated wells) in order to normalize data. Obtain a pool of HWB from 4 different healthy donors. Plate the blood in a 96 well plate using a Tecan Evo 96w and incubate with test compounds for 1 h at RT. After this time of incubation, stimulate HWB with both IL6 (206-IL, R&D System) and GM-CSF (PHC2015, Life Technologies) for 15 more minutes. Add a viability dye (65-0865, eBiosicience) (1:1000) using a Tecan Evo 96w (5×mix).
# The final concentrations in the assay are the following: 100 (μM for compounds, 50 μM for Tofacitinib, 0.1 μg/mL IL6, 0.038 μg/mL GM-CSF and 1% DMSO. Lyse and fix HWB using a Lyse/fix buffer (558049, Becton Dickinson) by adding 900 μL of lysis buffer using Tecan Evo 96w (mix 10× high speed). Incubate HWB in bath at 37° C. for 10 minutes. Centrifuge HWB at 500 G, 8 min and discard supernatant. Add cold MeOH using a Tecan Exo 96w in order to permeabilize cells. Incubate blood cells on ice during 30 min. After this, wash cells 2× using Staining buffer (554656, Becton Dickinson), spin at 3000 rpm, 2 min. discard supernatant, and add the following antibodies: Anti-Human CD4 PE, 1:100 (12-0048, eBioscience), Anti-Human CD33 eFluor® 450, 1:50 (48-0337, eBioscience), Phospho-STAT5 (Tyr694) (C71E5) Rabbit mAb, 1:100 (Alexa Fluor® 488 Conjugate) (3939, Cell Signaling) and Phospho-STAT3 (Tyr705) (D3A7) XP™ Rabbit mAb 1:200, (Alexa Fluor® 647 Conjugate) (4324, Cell Signaling). Incubate the antibodies for 1 h in dark at RT, then wash cells 2× and read on Cytometer Macsquant (Miltenyi Biotec). Gate the data on CD4+ (lymphocytes) and CD4Low CD33Hi (monocytes), to measure the fluorescence intensity from cells expressing pSTAT3 and pSTAT5, respectively. Analyze the data using FlowJo v 10 and then normalize the median of fluorescence versus maximum and minimum signal to determine the IC50s. Use Graph Pad Prism 5™ to represent the dose response curves.
# JAK2 [3] = molecular target: JAK2 (Rattus norvegicus (Rat), UniProt Q62689); test: Rat PK/PD assay: rat whole blood ex vivo JAK2 activity (pSTAT5); assay type: in vivo; settings: 30 mpk oral
# Method: Male Wistar rats, 265-285 grams (Charles River) were used for oral gavage dosing. Dose the animals (Oral gavage) at 1.82 mL/kg (0.5 mL per 275 grams). Formulate the compounds in 1% HEC vehicle containing 0.25% Tween 80 and 0.05% antifoam with 1.1 molar equivalent of methanesulfonic acid to form an in situ salt. Formulate compounds once per week, and store at 4° C. At various time points, obtain rat whole blood via tail vain bleeding in Multivette 600 μl EDTA blood collection tubes (cat#151671100PK100, Sarstedt Inc) and use for ex vivo JAK1 and JAK2 assay. Aliquot 100 ul of blood from each rat into a 96-well round bottom plate. Stimulate whole blood by recombinant IL-6 ([…], and recombinant mouse GM-CSF (cat#415-ML, lot#, R&D) for 12 min at rt. After cytokine stimulation, add whole blood into Lyse/fix (cat#558049, lot#, BD) in minitube rack; mix well 5×. Incubate 10 min at rt. Spin minitube rack at 600 g for 4 min. Aspirate with 12-channel manifold. Transfer contents of minitube rack to 96 well round-bottom plates. Spin down the cells at 3000 rpm for 1 min and discard the supernatant. Mix the cells in the well with 100 ul ice-cold MeOH and incubated on ice for 30 min. Add 150 ul PBS+2% FCS into each well and spin down at 3000 rpm, 2 min. Wash cells with 2× of 250 ul PBS+2% FCS. For cell surface and intracellular staining, mix all antibodies and add into each well and incubate 1 hr at rt in dark. The antibodies used for staining are as following: pSTAT3, Alexa Fluor 647 (cat#4324s, lot, Cell Signaling); pSTAT5, Alexa Fluor 488 (cat#3939s, lot#, Cell Signaling), anti-rat CD4, V450 (cat#561579, lot#. BD); anti-rat CD11b, Percp eFluor710 (cat#12-0110-82, lot#, eBioscience) After staining cells with Abs, wash the plates twice with PBS+2% FCS and finally re-suspend in the same 150 ul of solution. Assess cell viability by Viability Dye 780 (cat#65-0865-14, lot#, eBioscience). Perform the cytometry assay using FORTESSA.
# T1 sequence (O60674 whole entry): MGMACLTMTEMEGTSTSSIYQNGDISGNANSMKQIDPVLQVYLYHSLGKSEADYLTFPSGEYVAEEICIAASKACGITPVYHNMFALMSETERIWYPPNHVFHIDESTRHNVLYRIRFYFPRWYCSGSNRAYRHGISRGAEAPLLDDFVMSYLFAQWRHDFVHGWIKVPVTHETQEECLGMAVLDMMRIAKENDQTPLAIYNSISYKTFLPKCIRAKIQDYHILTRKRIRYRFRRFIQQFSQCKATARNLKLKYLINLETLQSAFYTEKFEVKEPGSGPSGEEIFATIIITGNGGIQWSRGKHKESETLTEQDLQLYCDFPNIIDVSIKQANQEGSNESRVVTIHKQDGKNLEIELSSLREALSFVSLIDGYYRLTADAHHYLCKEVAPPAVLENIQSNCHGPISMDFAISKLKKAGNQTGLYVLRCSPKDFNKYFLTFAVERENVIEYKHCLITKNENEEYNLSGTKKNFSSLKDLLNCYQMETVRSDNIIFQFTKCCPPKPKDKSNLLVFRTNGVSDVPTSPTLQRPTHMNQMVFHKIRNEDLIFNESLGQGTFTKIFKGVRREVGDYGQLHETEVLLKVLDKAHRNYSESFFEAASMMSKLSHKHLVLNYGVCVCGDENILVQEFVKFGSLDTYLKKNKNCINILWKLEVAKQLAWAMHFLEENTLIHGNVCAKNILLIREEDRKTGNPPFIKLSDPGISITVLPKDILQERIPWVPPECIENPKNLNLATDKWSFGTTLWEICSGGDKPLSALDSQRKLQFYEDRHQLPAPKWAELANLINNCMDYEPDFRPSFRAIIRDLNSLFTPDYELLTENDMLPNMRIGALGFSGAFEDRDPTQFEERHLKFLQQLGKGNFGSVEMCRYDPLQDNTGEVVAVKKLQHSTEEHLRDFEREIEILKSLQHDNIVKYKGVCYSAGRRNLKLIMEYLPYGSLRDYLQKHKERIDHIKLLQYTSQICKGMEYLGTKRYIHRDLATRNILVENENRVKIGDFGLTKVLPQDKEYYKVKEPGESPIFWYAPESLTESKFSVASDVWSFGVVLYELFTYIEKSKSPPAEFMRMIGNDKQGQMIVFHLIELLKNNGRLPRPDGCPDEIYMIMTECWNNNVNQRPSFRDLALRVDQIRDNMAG
# Chain of JAK2 (Rattus norvegicus (Rat), UniProt Q62689) (Q62689 whole entry): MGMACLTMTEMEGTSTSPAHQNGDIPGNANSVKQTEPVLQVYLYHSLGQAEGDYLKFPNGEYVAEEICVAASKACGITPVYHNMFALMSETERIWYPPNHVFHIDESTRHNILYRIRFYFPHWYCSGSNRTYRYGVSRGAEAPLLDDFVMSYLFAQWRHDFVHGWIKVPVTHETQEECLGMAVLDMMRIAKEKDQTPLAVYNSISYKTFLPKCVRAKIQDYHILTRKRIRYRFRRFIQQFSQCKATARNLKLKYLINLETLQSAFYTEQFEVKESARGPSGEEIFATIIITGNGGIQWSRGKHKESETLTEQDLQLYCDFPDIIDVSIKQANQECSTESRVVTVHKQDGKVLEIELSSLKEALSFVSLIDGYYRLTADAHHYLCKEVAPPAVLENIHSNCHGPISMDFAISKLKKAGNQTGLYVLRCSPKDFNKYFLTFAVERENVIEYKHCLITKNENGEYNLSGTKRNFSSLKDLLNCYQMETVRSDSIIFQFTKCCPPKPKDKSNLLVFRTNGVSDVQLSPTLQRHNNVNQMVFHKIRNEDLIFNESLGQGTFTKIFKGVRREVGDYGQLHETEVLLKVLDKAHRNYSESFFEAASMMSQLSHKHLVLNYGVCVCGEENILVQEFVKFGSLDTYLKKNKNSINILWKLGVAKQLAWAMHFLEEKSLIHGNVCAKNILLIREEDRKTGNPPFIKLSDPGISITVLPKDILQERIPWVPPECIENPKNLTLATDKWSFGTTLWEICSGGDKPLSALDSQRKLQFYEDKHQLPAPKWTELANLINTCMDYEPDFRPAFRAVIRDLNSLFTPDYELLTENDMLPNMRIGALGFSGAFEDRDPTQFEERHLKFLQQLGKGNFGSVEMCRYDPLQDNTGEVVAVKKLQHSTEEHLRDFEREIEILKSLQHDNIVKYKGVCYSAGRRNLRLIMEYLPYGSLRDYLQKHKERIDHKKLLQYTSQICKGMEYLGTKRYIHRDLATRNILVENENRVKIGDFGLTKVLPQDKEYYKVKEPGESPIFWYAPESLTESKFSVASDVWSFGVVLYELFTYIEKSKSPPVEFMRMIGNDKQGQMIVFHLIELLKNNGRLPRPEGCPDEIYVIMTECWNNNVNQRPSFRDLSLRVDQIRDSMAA
# Chain of JAK1 (P23458 whole entry): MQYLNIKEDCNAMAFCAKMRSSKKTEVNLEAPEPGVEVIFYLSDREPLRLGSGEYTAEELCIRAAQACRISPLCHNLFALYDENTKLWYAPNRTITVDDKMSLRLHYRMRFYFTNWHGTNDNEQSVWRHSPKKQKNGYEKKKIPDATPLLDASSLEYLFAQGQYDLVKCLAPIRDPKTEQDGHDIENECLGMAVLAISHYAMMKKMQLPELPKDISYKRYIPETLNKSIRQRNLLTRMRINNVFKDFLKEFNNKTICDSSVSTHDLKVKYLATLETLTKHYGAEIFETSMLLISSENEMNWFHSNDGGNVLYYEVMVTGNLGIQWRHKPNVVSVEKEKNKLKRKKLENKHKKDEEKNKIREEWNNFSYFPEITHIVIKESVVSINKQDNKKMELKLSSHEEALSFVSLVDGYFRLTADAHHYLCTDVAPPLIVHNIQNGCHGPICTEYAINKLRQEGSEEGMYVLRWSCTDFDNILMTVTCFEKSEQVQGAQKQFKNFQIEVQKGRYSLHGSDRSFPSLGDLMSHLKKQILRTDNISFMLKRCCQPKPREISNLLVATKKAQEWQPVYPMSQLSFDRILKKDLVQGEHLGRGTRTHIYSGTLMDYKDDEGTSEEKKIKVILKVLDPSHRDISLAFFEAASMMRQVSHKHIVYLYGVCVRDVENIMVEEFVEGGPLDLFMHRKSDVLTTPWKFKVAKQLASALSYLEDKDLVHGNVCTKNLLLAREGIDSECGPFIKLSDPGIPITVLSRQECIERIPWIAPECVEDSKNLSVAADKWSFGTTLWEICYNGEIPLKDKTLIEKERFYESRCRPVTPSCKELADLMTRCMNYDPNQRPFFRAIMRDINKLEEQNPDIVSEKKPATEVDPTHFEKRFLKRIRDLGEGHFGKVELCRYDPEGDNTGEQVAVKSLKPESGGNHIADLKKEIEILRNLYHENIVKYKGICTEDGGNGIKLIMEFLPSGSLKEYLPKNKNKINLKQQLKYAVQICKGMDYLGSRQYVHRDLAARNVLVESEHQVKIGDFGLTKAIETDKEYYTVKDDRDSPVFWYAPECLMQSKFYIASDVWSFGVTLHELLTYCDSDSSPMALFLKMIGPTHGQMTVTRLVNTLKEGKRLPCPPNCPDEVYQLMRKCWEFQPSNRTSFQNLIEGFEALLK
compound,measurement,setting,value
"COc1cc(Nc2cc(O[C@H]3CC[C@@H](NC[C@@H](O)C(F)(F)F)CC3)cc3c2ncn3C)nn1C [Example 6, (2R)-1,1,1-Trifluoro-3-{[cis-4-({4-[(5-methoxy-1-methyl-1H-pyrazol-3-yl)amino]-1-methyl-1H-benzimidazol-6-yl}oxy)cyclohexyl]amino}propan-2-ol]",IC50,JAK1,5.25 ± 1.11 nM
same,IC50,JAK2 [1],768 ± 220 nM
same,IC50,JAK2 [2],20300 ± 6300 nM
same,inhibition at 30 mg/kg,"JAK2 [3]; 2 hr post dosing, read-out: JAK2 inhibition 2 hr post dosing",17.7%
same,inhibition at 30 mg/kg,"JAK2 [3]; 7 hr post dosing, read-out: JAK2 inhibition 7 hr post dosing",17.4%

# From patent US10323019B2, “Pyrazolylaminobenzimidazole derivatives as JAK inhibitors” (Eli Lilly and Company, priority 2016, dated 2019)
